Experiments:
[1] = tested on: epimastigotes of T. cruzi (Tulahuen 2 strain); assay: Anti-T. cruzi test in vitro (epimastigote growth inhibition); assay type: cell-based, Trypanosoma cruzi
Protocol: (§1) To evaluate the anti-trypanosomal activity of the synthesized 3H-[1,2]dithioles we used T. cruzi, Tulahuen 2 strain (discrete typing unit, DTU, TcVI [18]) in the epimastigote form. […] To establish the selectivity of the compounds against the parasite, unspecific cytotoxicity against mammalian cells (J774.1 murine macrophages) was studied for the most relevant derivatives. The selectivity indexes (SI) were also determined (Table 1).
We used epimastigotes of the Tulahuen 2 strain (DTU, Tc VI) growing in an axenic milieu (BHI-Tryptose). Cells from a 5–7-day-old culture were inoculated in fresh culture milieu to give an initial concentration of 1 × 10^6 cells/mL. The absorbance at 600 nm of the cells in culture was measured every day. At day 5, the milieu was inoculated with different quantities of the compounds from a stock solution in DMSO (DMSO concentration in the culture milieu never exceeded 0.4%). The control was made in the presence of 0.4% DMSO and in the absence of compounds. […] At day 5, the absorbance of the culture was measured and related to the control. The IC50 value was taken as the concentration of drug needed to reduce the absorbance ratio to 50%.

[2] = target: T1, Trypanosoma cruzi triosephosphate isomerase (TcTIM) (Trypanosoma cruzi, UniProt P52270); assay: Inhibition of enzymatic activity of TcTIM; assay type: biochemical
T1 construct: made in house; host or cells: Escherichia coli
Protocol: In order to investigate if the 3H-[1,2]dithioles inhibit TcTIM, we initially tested the inhibitory capacity of the compounds at a concentration of 200 μM and then at 25 μM.
Expression and purification of protein: TcTIM was expressed in Escherichia coli and purified as described in the literature. After purification, the enzyme, dissolved in 100 mM triethanolamine, 10 mM EDTA and 1 mM dithiothreitol (pH 8), was precipitated with ammonium sulfate (75% saturation) and stored at 4 °C. Before use, extensive dialysis against 100 mM triethanolamine/10 mM EDTA (pH 7.4) was performed. Protein concentration was determined by absorbance at 280 nm (ε = 36,440 M^−1·cm^−1).
Enzymatic activity assays. Enzymatic activity was determined following the conversion of glyceraldehyde 3-phosphate into dihydroxyacetone phosphate. The decrease in absorbance at 340 nm was followed in a multicell Cary spectrophotometer at 25 °C. The reaction mixture (1 mL, pH 7.4) contained 100 mM triethanolamine, 10 mM EDTA, 0.2 mM NADH, 1 mM glyceraldehyde 3-phosphate, and 0.9 units of α-glycerol phosphate dehydrogenase. The reaction was initiated by addition of 5 ng/mL of the TcTIM.
For inactivation studies, TcTIM was incubated at a concentration of 5 mg/mL in a buffer containing 100 mM triethanolamine, 10 mM EDTA, pH 7.4 and 10% of DMSO at 36 °C. The mixture also contained the compounds at the indicated concentrations. Compounds were dissolved in DMSO. After 2 h, […] was withdrawn and added to 1 mL of reaction mixture for the activity assay. None of the molecules tested here affected the activity of α-glycerol phosphate dehydrogenase, the enzyme used for trapping the product.
The IC50 value was taken as the concentration of drug needed to reduce the enzymatic activity to 50%. The experiments were performed in triplicate.

[3] = tested on: J774.1 murine macrophages; assay: Unspecific in vitro cytotoxicity of mammalian cells (MTT); assay type: cell-based; settings: Mus musculus, 48 h exposure, read-out: IC50 against Macrophages
Protocol: as §1
J774.1 murine macrophage cells (ATCC, Manassas, VA, USA) were grown in DMEM culture milieu containing 4 mM L-glutamine and supplemented with 10% heat-inactivated fetal calf serum. […] Afterwards, cells were exposed for 48 h to the compounds (25–400 μM) or vehicle for control (0.4% DMSO), and additional controls (cells in medium) were used in each test. Cell viability was then assessed by measuring the mitochondria-dependent reduction of MTT (3-(4,5-dimethylthiazol-2-yl)-2,5-diphenyltetrazolium bromide) to formazan. For this purpose, MTT in sterile PBS (0.2% glucose) pH 7.4 was added to the macrophages to achieve a final concentration of 0.1 mg/mL and the cells were incubated at 37 °C for 3 h. After removing the medium, formazan crystals were dissolved in 180 μL of DMSO and 20 μL of MTT buffer (0.1 M glycine, 0.1 M NaCl, 0.5 mM EDTA, pH 10.5) and the absorbance at 560 nm was measured. The IC50 was defined as the drug concentration at which 50% of the cells were viable, relative to the control (no drug added), and was determined by analysis using OriginLab8.5® sigmoidal regression (% of viable cells vs. logarithm of the compound concentration). Samples were performed in triplicate.

T1 sequence (P52270 whole entry): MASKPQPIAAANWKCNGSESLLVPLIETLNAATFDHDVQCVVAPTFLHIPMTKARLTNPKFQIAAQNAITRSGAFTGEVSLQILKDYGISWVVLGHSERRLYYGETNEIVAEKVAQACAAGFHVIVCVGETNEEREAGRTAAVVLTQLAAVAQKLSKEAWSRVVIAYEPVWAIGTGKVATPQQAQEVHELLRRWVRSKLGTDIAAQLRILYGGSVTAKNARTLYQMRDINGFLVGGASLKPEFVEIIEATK

inhibition at 25 µM ([2]; percentage of enzymatic inhibition at 25 μM, read-out: TcTIM % Inhib25): 48 ± 4%
inhibition at 200 µM ([2]; percentage of enzymatic inhibition at 200 μM, read-out: TcTIM % Inhib200): 72%
Compound: CC(=O)COc1ccc(C2=C/C(=C(\SCC(C)=O)C(C)=O)SS2)cc1 [Derivative 2]
IC50 ([1]; Trypanosoma cruzi, epimastigotes, Tulahuen 2 strain, triplicate, read-out: IC50 against T. cruzi): 7.7 ± 1.4 µM
SI (selectivity index) ([1]; macrophages (J774.1) vs T. cruzi epimastigotes): 3.1
IC50 [3]: 24 ± 1 µM
